Where “and” joins values, the source holds several entries; their conditions need not be identical. Equal values may be shown once. Read-outs that look alike come from different tables or passages of the source.
Key:
BT474 xenograft = test: BT474 human breast tumor xenograft in CB.17 SCID mice; type: in vivo
DU145 cells = test: MTT proliferation assay, DU145; type: cell-based, human; settings: 50 μg, single experiments, listed as Anti-STAT3 Bacterial VHH13
U87MG cells = test: MTT proliferation assay, U87MG; type: cell-based, human; settings: for % Inhibition (growth): U87mg cells treated for 72 hr.
EBOv (Makon) = settings: Hela; EBOV (Makona); 48 hours
MDA-MB 231 cells = test: Internalization of sdAb, anti-His staining, MDA-MB 231; type: cell-based; settings: 18 hours after sdAb addition
Protocol: The next day, the chambers were rinsed with fresh media and STAT3 VHH13 (SEQ ID NO:3) sdAb (diluted 1:10 in media) or TNF-α VHH66 (SEQ ID NO:45) sdAb was added to the chamber. An anti-HIV-1 Reverse Transcriptase (RT) sdAb was used as a negative control.
The slides were incubated for 18 hours after sdAb addition. The chambers were briefly rinsed with media and fixed in ice-cold methanol for 5-10 min. The chambers were then dried and stained with a fluorescent anti-His tag antibody (1:200) (Novus Biologicals, Littleton, Colo.) for 45 min at room temperature. The slides were rinsed in PBS for 5 minutes and mounted.

SJSA-1 cells = test: MTT proliferation assay, SJSA-1; type: cell-based, human; settings: for Mean Abs (±SD): 72 hours
MCF-7 xenograft = settings: for Caliper Measurement W / Caliper Measurement L / Tumor Volume TV: individual animals; for Caliper Measurement W / Caliper Measurement L / Tumor Volume TV / Tumor Volume TV, group Mean: VHH13 1 mg/kg ip tid × 14
[1] = SB-01 1 mg/kg ip tid × 14 first day 2 doses
[2] = Group 2, 1 mg/kg ip tid × 14 first Day 2 doses

## anti-STAT3 VHH13: anti-STAT3 single-domain antibody, SEQ ID NO:3; bacterially produced, referred to as SBT-100
BT474 xenograft; 1 mg/kg ip tid × 14
  effect on growth of BT474 tumors compared to control: did not reduce the growth of BT474 tumors in vivo
BT474 xenograft; [1]
  % TGD: 22%
  MTV (n) Day 60: 550
  Median TTE: 60.0
DU145 cells
  Absorbance: 0.68 and 1.2
U87MG cells; Dose 50 μg/ml
  % Inhibition (growth): 18%
U87MG cells; Dose 100 μg/ml
  % Inhibition (growth): 51%
U87MG cells; Dose 200 μg/ml
  % Inhibition (growth): 62%
U87MG cells; U87mg, 72 hr
  IC50: IC50 = 65 μg/ml
U87MG cells; U87mg, SBT-100 50 μg/ml, 72 hr
  % Inhibition: 18%
U87MG cells; U87mg, SBT-100 100 μg/ml, 72 hr
  % Inhibition: 51%
U87MG cells; U87mg, SBT-100 200 μg/ml, 72 hr
  % Inhibition: 62%
EBOv (Makon)
  EC50: 19.02 ug/m
  EC90: 58.72 µg/mL
MDA-MB 231 cells
  staining with fluorescent anti-His tag antibody: positive cytoplasmic staining
SJSA-1 cells; SJSA, 72 hr
  IC50: IC50 = 51 μg/ml
SJSA-1 cells; Table 72 (experiment 5a), SBT-100 3.13 μg/ml alone
  Mean Abs (±SD): 0.278 ± 0.057
SJSA-1 cells; Table 72 (experiment 5a), SBT-100 6.25 μg/ml alone
  Mean Abs (±SD): 0.258 ± 0.097
SJSA-1 cells; Table 72 (experiment 5a), SBT-100 25 μg/ml alone
  Mean Abs (±SD): 0.221 ± 0.034
SJSA-1 cells; Table 72 (experiment 5a), SBT-100 50 μg/ml alone
  Mean Abs (±SD): 0.066 ± 0.003
SJSA-1 cells; Table 72 (experiment 5a), SBT-100 100 μg/ml alone
  Mean Abs (±SD): 0.058 ± 0.002
SJSA-1 cells; Table 73 (Experiment 2, 5b), SBT-100 3.13 μg/ml alone
  Mean Abs (±SD): 0.774 ± 0.068
SJSA-1 cells; Table 73 (Experiment 2, 5b), SBT-100 6.25 μg/ml alone
  Mean Abs (±SD): 0.835 ± 0.058
SJSA-1 cells; Table 73 (Experiment 2, 5b), SBT-100 25 μg/ml alone
  Mean Abs (±SD): 0.781 ± 0.057
SJSA-1 cells; Table 73 (Experiment 2, 5b), SBT-100 50 μg/ml alone
  Mean Abs (±SD): 0.460 ± 0.038
SJSA-1 cells; Table 73 (Experiment 2, 5b), SBT-100 100 μg/ml alone
  Mean Abs (±SD): 0.091 ± 0.002
MCF-7 xenograft; 1 mg/kg ip tid x 14, control group 25 days
  time for the group to reach a tumor volume of 1000 mm^3: 36 days
MCF-7 xenograft; Day 1
  Caliper Measurement W: 6 mm
MCF-7 xenograft; Day 1, 1 mg/kg
  Caliper Measurement L: 6 mm (2×) and 7 mm (2×)
MCF-7 xenograft; Day 4 (Jul. 30, 2015), 1 mg/kg
  Tumor Volume TV: 196 mm^3 and 126 mm^3 and 144 mm^3
MCF-7 xenograft; Day 4, 1 mg/kg
  Caliper Measurement L: 8 mm (2×) and 7 mm
  Caliper Measurement W: 7 mm and 6 mm (2×)
MCF-7 xenograft; Day 8, 1 mg/kg
  Caliper Measurement L: 8 mm
  Caliper Measurement W: 7 mm
MCF-7 xenograft; Day 11, 1 mg/kg
  Caliper Measurement L: 8 mm
  Caliper Measurement W: 9 mm and 7 mm
MCF-7 xenograft; Day 15
  Tumor Volume TV, group Mean: 346.5 mm^3
MCF-7 xenograft; Day 15, 1 mg/kg
  Caliper Measurement L: 9 mm
  Caliper Measurement W: 9 mm
  Tumor Volume TV: 405 mm^3 and 288 mm^3
MCF-7 xenograft; Day 18, 1 mg/kg
  Caliper Measurement L: 9 mm
  Caliper Measurement W: 9 mm
MCF-7 xenograft; Day 22, 1 mg/kg
  Caliper Measurement L: 11 mm
  Caliper Measurement W: 9 mm
MCF-7 xenograft; Day 25, 1 mg/kg
  Caliper Measurement L: 12 mm
  Caliper Measurement W: 12 mm and 9 mm
MCF-7 xenograft; Day 29, 1 mg/kg
  Caliper Measurement L: 13 mm
  Caliper Measurement W: 13 mm
MCF-7 xenograft; Day 32
  Tumor Volume TV, group Mean: 500 mm^3
  Tumor Volume TV: 500 mm^3
MCF-7 xenograft; Day 36
  Caliper Measurement L: 12 mm
  Caliper Measurement W: 12 mm
MCF-7 xenograft; Day 39
  Caliper Measurement L: 13 mm
  Caliper Measurement W: 13 mm
MCF-7 xenograft; [2]
  % TGD: 42%
  T-C: 9.7

Source: patent US11370847B2, “Single domain antibodies directed against intracellular antigens” (Singh Biotechnology, LLC, priority 2014, dated 2022)
